According to patent US9365522B2, “Pyrazole amide derivative” (AMGEN INC., priority 2015, dated 2016):

Target: T1, human RORγ-LBD (Homo sapiens, UniProt P51449)
T1 construct: made in house; host or cells: E. coli (BL-21)
T1 sequence (P51449 262-518): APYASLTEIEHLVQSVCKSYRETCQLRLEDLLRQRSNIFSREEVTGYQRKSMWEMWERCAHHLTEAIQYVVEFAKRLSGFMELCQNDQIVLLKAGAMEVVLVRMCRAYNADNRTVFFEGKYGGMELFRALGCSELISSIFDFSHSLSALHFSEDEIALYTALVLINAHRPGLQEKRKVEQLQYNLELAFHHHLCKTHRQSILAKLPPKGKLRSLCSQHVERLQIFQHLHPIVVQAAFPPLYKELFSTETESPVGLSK
Test: ROR gamma coactivator peptide recruitment Alphascreen assay (RORγ-LBD binding to GRIP1 coactivator peptide)
Type: biochemical
Conditions: 5 nM human RORγ-LBD, 30 nM 7-β-hydroxycholesterol, 50 nM biotinylated GRIP1 coactivator peptide, overnight incubation at room temperature; read-out: result (pIC50, RORγ coactivator peptide recruitment Alphascreen assay) (converted)
Description: Alphascreen™ is a bead-based amplified homogenous luminescent proximity assay that can be used for measuring the effect of compounds on protein-protein interactions. When biological interactions bring donor and acceptor beads into close proximity, reactive oxygen, generated upon laser excitation of the donor beads, initiates a luminescence/fluorescence cascade in the acceptor beads that leads to a highly amplified signal that can be measured as light in the 520-620 nm range. When the acceptor and donor beads are not in proximity, the reactive oxygen decays and only a very low background signal is generated.
An in vitro assay to assess inhibition of RORγ binding to the coactivator GRIP1 was established using Alphascreen™ technology. The interaction between nuclear receptors (NR) and coactivator proteins is a key step in signal transduction from the receptor to the transcriptional machinery and can be measured in vitro using only the ligand binding domain of the nuclear receptor and a peptide containing a coactivator protein LXXLL nuclear receptor binding motif
For the RORγ construct used in the coactivator recruitment assay, nucleotides corresponding to the ligand binding domain (LBD) of wild type human RORγ (amino acids 262-518 of Genbank Accession No. NM_005060.3) were cloned into the pET24 expression vector (Novagen), downstream of in-frame N-terminal 6×His and Flag tag sequences. Recombinant 6×His:Flag-tagged human RORγ-LBD protein was expressed in E. coli (BL-21) and purified by affinity chromatography on a nickel Sepharose column, followed by anion exchange chromatography.
A 4× assay mixture of 6×His:Flag-tagged human RORγ-LBD with the agonist ligand 7-β-hydroxycholesterol was prepared in assay buffer (50 mM HEPES pH 7.4, BSA 0.05%, 150 mM NaCl, 5 mM MgCl2, 1 mM DTT, 0.01% Tween-20). For control wells a 4× mixture of 6×His:Flag-tagged human ROR gamma LBD alone was also prepared.
A 4× stock of biotinylated coactivator peptide containing the LXXLL motif from GRIP1 (Biotin-[…]) was prepared in assay buffer.
A 4×detection mixture of nickel chelate Alphascreen™ acceptor beads (PerkinElmer) and streptavidin Alphascreen™ donor beads (PerkinElmer) was prepared in assay buffer.
Compounds to be tested were arranged in a pre-dose 384-well mother plate serially diluted 1 in 2 over 22 columns, in 100% DMSO, at 40× the final test concentration, from a high concentration of 4 mM. DMSO with no compound was placed in control columns. The compounds were robotically dispensed directly into assay plates containing assay buffer to a 4× final test concentration.
Following compound addition, the 6×His:Flag-tagged human RORγ-LBD plus 7-β-hydroxycholesterol assay mixture, biotinylated coactivator peptide and detection mixture were added. Final assay conditions were 5 nM 6×His:Flag-tagged human RORγ-LBD, 30 nM 7-β-hydroxycholesterol, 50 nM biotinylated coactivator peptide, 2.5 ug/ml nickel acceptor beads and 10 ug/ml streptavidin donor beads. The final concentration of DMSO in the assay was 2.5%.
After overnight incubation at room temperature plates were read on and Envision™ plate reader (PerkinElmer).
Data was plotted and pIC50 values were calculated using the Genedata Screener™ data analysis suite (Genedata).

## C[C@@H]1C[C@@H](n2ncc(C(=O)N(CC(=O)c3c(Cl)cccc3Cl)CC3CC(C)(C)C3)c2C(F)(F)F)CC[C@@H]1C(=O)O (stereo in doubt) [Example 572, (1S,2R,4S)-4-(4-((2-(2,6-dichlorophenyl)-2-oxoethyl)((3,3-dimethylcyclobutyl)methyl)carbamoyl) 5-(trifluoromethyl)-1H-pyrazol-1-yl)-2-methylcyclohexanecarboxylic acid]
  IC50: 4.68 nM

## C=CC[C@@H]1CCCC[C@@H]1n1ncc(C(=O)N(CC(=O)c2c(Cl)cncc2Cl)CC(C)(C)C)c1C(F)(F)F (stereo in doubt) [Example 586, N-(2-(3,5-dichloro-4-pyridinyl)-2-oxoethyl)-N-(2,2-dimethylpropyl)-1-((1S,2S)-2-(2-propen-1-yl)cyclohexyl)-5-(trifluoromethyl)-1H-pyrazole-4-carboxamide]
  IC50: 331 nM

## O=C(CN(CC1(F)CCCC1)C(=O)c1cnn(C2CCC(C(=O)O)CC2)c1C(F)(F)F)c1c(Cl)cccc1Cl (stereo in doubt) [Example 603, cis-4-(4-((2-(2,6-dichlorophenyl)-2-oxoethyl)((1-fluorocyclopentyl)methyl)carbamoyl)-5-(trifluoromethyl)-1H-pyrazol-1-yl)cyclohexanecarboxylic acid]
  IC50: 49 nM

## O=C(O)C1CCC(n2ncc(C(=O)N(CCc3c(Cl)cncc3Cl)CC3(F)CCCC3)c2C(F)(F)F)CC1 (stereo in doubt) [Example 609, cis-4-(4-((2-(3,5-dichloro-4-pyridinyl)ethyl)((1-fluorocyclopentyl)methyl)carbamoyl)-5-(trifluoromethyl)-1H-pyrazol-1-yl)cyclohexanecarboxylic acid]
  IC50: 95.5 nM

## O=C(CN(C(=O)c1cnn([C@H]2CC[C@@H](C(=O)O)CC2)c1C(F)(F)F)C1CCC12CCCC2)c1c(Cl)cccc1Cl (stereo in doubt) [Example 627, cis-4-(4-((2-(2,6-dichlorophenyl)-2-oxoethyl)((1R)-spiro[3.4]oct-1-yl)carbamoyl)-5-(trifluoromethyl)-1H-pyrazol-1-yl)cyclohexanecarboxylic acid]
  IC50: 64.6 nM

## C[C@@H]1C[C@@H](n2ncc(C(=O)N(CC(=O)c3c(Cl)cncc3Cl)CC3(F)CC3)c2C(F)(F)F)CC[C@@H]1C(=O)O (stereo in doubt) [Example 736, (1S,2R,4S)-4-(4-((2-(3,5-dichloro-4-pyridinyl)-2-oxoethyl)((1-fluorocyclopropyl)methyl)carbamoyl)-5-(trifluoromethyl)-1H-pyrazol-1-yl)-2-methylcyclohexanecarboxylic acid]
  IC50: 110 nM

## C[C@H]1C[C@H](n2ncc(C(=O)N(CC(=O)c3c(Cl)cncc3Cl)CC3(F)CC3)c2C(F)(F)F)CC[C@H]1C(=O)O (stereo in doubt) [Example 737, (1R,2S,4R)-4-(4-((2-(3,5-dichloro-4-pyridinyl)-2-oxoethyl)((1-fluorocyclopropyl)methyl)carbamoyl)-5-(trifluoromethyl)-1H-pyrazol-1-yl)-2-methylcyclohexanecarboxylic acid]
  IC50: 14.1 nM

## C[C@H]1C[C@H](n2ncc(C(=O)N(CC(=O)c3c(Cl)cncc3Cl)C[C@@H]3CCC(C)(C)O3)c2C(F)(F)F)CCC1C(=O)O (stereo in doubt) [Example 773, (1S,2S,4R)-4-(4-((2-(3,5-dichloro-4-pyridinyl)-2-oxoethyl)(((2S)-5,5-dimethyltetrahydro-2-furanyl)methyl)carbamoyl)-5-(trifluoromethyl)-1H-pyrazol-1-yl)-2-methylcyclohexanecarboxylic acid]
  IC50: 81.3 nM

## C[C@@H]1CC(n2ncc(C(=O)N(CC(=O)c3c(Cl)cccc3Cl)CC(C)(C)C)c2C(F)(F)F)CCC1C(=O)O (stereo in doubt) [Example 794, (1S,2R,4S)-4-(4-((2-(2,6-dichlorophenyl)-2-oxoethyl)(2,2-dimethylpropyl)carbamoyl)-5-(trifluoromethyl)-1H-pyrazol-1-yl)-2-methylcyclohexanecarboxylic acid]
  IC50: 2.95 nM

## C[C@H]1C[C@](C)(C(=O)O)CC[C@H]1n1ncc(C(=O)N(CC(=O)c2c(Cl)cncc2Cl)CC(C)(C)C)c1C(F)(F)F (stereo in doubt) [Example 842, (1R,3S,4R)-4-(4-((2-(3,5-dichloro-4-pyridinyl)-2-oxoethyl)(2,2-dimethylpropyl)carbamoyl)-5-(trifluoromethyl)-1H-pyrazol-1-yl)-1,3-dimethylcyclohexanecarboxylic acid]
  IC50: 309 nM

## C[C@@H]1C[C@](C)(C(=O)O)CC[C@H]1n1ncc(C(=O)N(CC(=O)c2c(Cl)cncc2Cl)CC(C)(C)C)c1C(F)(F)F (stereo in doubt) [Example 855, (1R,3R,4R)-4-(4-((2-(3,5-dichloro-4-pyridinyl)-2-oxoethyl)(2,2-dimethylpropyl)carbamoyl)-5-(trifluoromethyl)-1H-pyrazol-1-yl)-1,3-dimethylcyclohexanecarboxylic acid]
  IC50: 5.75 nM

## CC1C[C@@H](n2ncc(C(=O)N(CC(=O)c3c(Cl)cncc3Cl)CC(C)(C)C)c2C(F)(F)F)CC[C@]1(C)C(=O)O (stereo in doubt) [Example 861, (1S,2S,4S)-4-(4-((2-(3,5-dichloro-4-pyridinyl)-2-oxoethyl)(2,2-dimethylpropyl)carbamoyl)-5-(trifluoromethyl)-1H-pyrazol-1-yl)-1,2-dimethylcyclohexanecarboxylic acid]
  IC50: 4.79 nM

## C[C@H]1C[C@@H](n2ncc(C(=O)N(CC(=O)c3c(Cl)cncc3Cl)CC(C)(C)C(F)(F)F)c2C(F)(F)F)CC[C@@H]1C(=O)O (stereo in doubt) [Example 864, (1S,2S,4S)-4-(4-((2-(3,5-dichloro-4-pyridinyl)-2-oxoethyl)(3,3,3-trifluoro-2,2-dimethylpropyl)carbamoyl)-5-(trifluoromethyl)-1H-pyrazol-1-yl)-2-methylcyclohexanecarboxylic acid]
  IC50: 2.95 nM

## O=C(c1cnn([C@H]2CC[C@H](C(=O)O)CC2)c1C(F)(F)F)N(CCc1ccccc1Cl)Cc1ccc(Cl)cc1 [Example 500, trans-4-(4-((4-chlorobenzyl)(2-(2-chlorophenyl)ethyl)carbamoyl)-5-(trifluoromethyl)-1H-pyrazol-1-yl)cyclohexanecarboxylic acid]
  IC50: 15.1 nM

## O=C(c1cnn([C@H]2CC[C@H](C(=O)O)CC2)c1C(F)(F)F)N(CCc1c(Cl)cccc1Cl)Cc1ccc(Cl)cc1 [Example 501, trans-4-(4-((4-chlorobenzyl)(2-(2,6-dichlorophenyl)ethyl)carbamoyl)-5-(trifluoromethyl)-1H-pyrazol-1-yl)cyclohexanecarboxylic acid]
  IC50: 3.8 nM

## O=C(c1cnn([C@H]2CC[C@H](C(=O)O)CC2)c1C(F)(F)F)N(CCc1ccccc1)Cc1ccc(Cl)cc1 [Example 502, trans-4-(4-((4-chlorobenzyl)(2-phenylethyl)carbamoyl)-5-(trifluoromethyl)-1H-pyrazol-1-yl)cyclohexanecarboxylic acid]
  IC50: 275 nM

## O=C(c1cnn([C@H]2CC[C@H](C(=O)O)CC2)c1C(F)(F)F)N(CCc1ccc2cc[nH]c2c1)Cc1ccc(Cl)cc1 [Example 503, trans-4-(4-((4-chlorobenzyl)(2-(1H-indol-6-yl)ethyl)carbamoyl)-5-(trifluoromethyl)-1H-pyrazol-1-yl)cyclohexanecarboxylic acid]
  IC50: 355 nM

## O=C(c1cnn([C@H]2CC[C@H](C(=O)O)CC2)c1C(F)(F)F)N(CCc1ccc(Cl)cc1Cl)Cc1ccc(Cl)cc1 [Example 504, trans-4-(4-((4-chlorobenzyl)(2-(2,4-dichlorophenyl)ethyl)carbamoyl)-5-(trifluoromethyl)-1H-pyrazol-1-yl)cyclohexanecarboxylic acid]
  IC50: 6.92 nM
